Legend:
[1] = target: T1, human cathepsin F (Homo sapiens, UniProt Q9UBX1); experiment: Cathepsin F assay (hCat F); format: biochemical; conditions: Z-Phe-Arg-AMC substrate, pH 5.5, 15 min preincubation; read-out: hCat F (IP (nM))
T1 sequence (Q9UBX1 271-484): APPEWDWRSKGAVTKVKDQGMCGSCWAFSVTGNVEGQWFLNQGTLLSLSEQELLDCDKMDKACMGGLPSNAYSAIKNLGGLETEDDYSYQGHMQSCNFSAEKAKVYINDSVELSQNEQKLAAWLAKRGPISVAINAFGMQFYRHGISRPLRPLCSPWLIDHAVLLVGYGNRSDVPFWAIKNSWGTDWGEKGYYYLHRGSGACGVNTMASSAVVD
Summary of the method: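 AMC release from Z-Phe-Arg-AMC, added at 8 μM, was monitored fluorometrically (360/460 nm) for 20 min after 10 nM enzyme and compound had been preincubated 15 min at room temperature. Buffer: MES 50 mM pH 5.5, EDTA and DTT 2.5 mM each, 10% DMSO. Compound DMSO dilutions spanned 500–0.025 μM (3-fold). Dose-response fitting gave % inhibition.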

[2] = target: human cathepsin K (UniProt P43236); experiment: Cathepsin K Assay (hrbCat K); format: biochemical; conditions: Z-Leu-Arg-AMC substrate, pH 5.5, 15 min preincubation; read-out: hrbCat K (IP (nM))
Summary of the method: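 Human cathepsin K (0.4 nM) was preincubated 15 min at room temperature with compound in 50 mM MES pH 5.5, 2.5 mM EDTA, 2.5 mM DTT and 10% DMSO. Inhibition was fitted to a dose-response model.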

Compound | IC50 [1] [nM] | IC50 [2] [nM]
CN=S1(=O)CCN(c2ccc(-c3sc(-c4ccc(F)cc4)nc3[C@@H]3CCCC[C@H]3C(=O)NC3(C#N)CC3)cc2)CC1 [Example 160, (1R,2R)-N-(1-cyanocyclopropyl)-2-(2-(4-fluorophenyl)-5-(4-(1-(methylimino)-1-oxidothiomorpholino)phenyl)thiazol-4-yl)cyclohexane-carboxamide] | 3330 | 1.6
CC1CC1(C#N)NC(=O)[C@@H]1CCCC[C@H]1c1nc(-c2ccc(F)cn2)sc1-c1ccc(N2CCS(=O)(=O)CC2)cc1 (single isomer, unassigned) [Example 202, (1R,2R)-N-((1S,2S or 1S,2R or 1R,2S or 1R,2R)-1-cyano-2-methylcyclopropyl)-2-(5-(4-(1,1-dioxidothiomorpho-lino)phenyl)-2-(5-fluoropyridin-2-yl)thiazol-4-yl)cyclohexane-carboxamide] | ≥ 10000 | 6.6
Cc1nc([C@@H]2CCCC[C@H]2C(=O)NCC#N)c(-c2ccc(N3CCS(=O)(=O)CC3)cc2)o1 [Example 164, (1R,2R)-N-(cyanomethyl)-2-(5-(4-(1,1-dioxidothiomorpho-lino)phenyl)-2-methyloxazol-4-yl)cyclohexane-carboxamide] | ≥ 10000 | 13.8
N#CN=S1(=O)CCN(c2ccc(-c3sc(-c4ccc(F)cc4)nc3[C@@H]3CCCC[C@H]3C(=O)NC3(C#N)CC3)cc2)CC1 [Example 182, (1R,2R)-N-(1-cyanocyclopropyl)-2-(5-(4-(1-(cyanoimino)-1-oxidothiomorpholino)phenyl)-2-(4-fluorophenyl)thiazol-4-yl)cyclohexane-carboxamide] | 3330 | 2.72
CC(C)(c1ccccc1)c1nc([C@@H]2CCCC[C@H]2C(=O)NC2(C#N)CC2)c(-c2ccc(N3CCS(=O)(=O)CC3)cc2)s1 [Example 161, (1R,2R)-N-(1-cyanocyclopropyl)-2-(5-(4-(1,1-dioxidothiomorpho-lino)phenyl)-2-(2-phenylpropan-2-yl)thiazol-4-yl)cyclohexane-carboxamide] | 1000 | 5.1
N#CC1(NC(=O)[C@@H]2CCCC[C@H]2c2nc(-c3cncc(F)c3)sc2-c2ccc(N3CCS(=O)(=O)CC3)cc2)CC1 [Example 44, (1R,2R)-N-(1-cyanocyclopropyl)-2-(5-(4-(1,1-dioxidothiomorpho-lino)phenyl)-2-(5-fluoropyridin-3-yl)thiazol-4-yl)cyclohexane-carboxamide] | 790 | 0.7
CC(C)(CO)c1nc([C@@H]2CCCC[C@H]2C(=O)NC2(C#N)CC2)c(-c2ccc(N3CCS(=O)(=O)CC3)cc2)s1 [Example 224, (1R,2R)-N-(1-cyanocyclopropyl)-2-(5-(4-(1,1-dioxidothiomorpho-lino)phenyl)-2-(1-hydroxy-2-methylpropan-2-yl)thiazol-4-yl)cyclohexane-carboxamide] | ≥ 10000 | 3.3
N#CC1(NC(=O)[C@@H]2CCCC[C@H]2c2nc(-c3cncc(C(F)(F)F)c3)sc2-c2ccc(N3CCS(=O)(=O)CC3)cc2)CC1 [Example 88, (1R,2R)-N-(1-cyanocyclopropyl)-2-(5-(4-(1,1-dioxidothiomorpho-lino)phenyl)-2-(5-(trifluoromethyl)pyridin-3-yl)thiazol-4-yl)cyclohexane-carboxamide] | 1400 | 1.5
COc1ccc(-c2nc([C@@H]3CCCC[C@H]3C(=O)NC3(C#N)CC3)c(-c3ccc(N4CCS(=O)(=O)CC4)cc3)s2)cn1 [Example 86, (1R,2R)-N-(1-cyanocyclopropyl)-2-(5-(4-(1,1-dioxidothiomorpho-lino)phenyl)-2-(6-methoxypyridin-3-yl)thiazol-4-yl)cyclohexane-carboxamide] | 3330 | 1.8
N#CC1(NC(=O)[C@@H]2C[C@@H](F)CC[C@H]2c2nc(-c3cccnc3)sc2-c2ccc(N3CCS(=O)(=O)CC3)cc2)CC1 [Example 46, (1R,2R,5S)-N-(1-cyanocyclopropyl)-2-(5-(4-(1,1-dioxidothiomorpho-lino)phenyl)-2-(pyridin-3-yl)thiazol-4-yl)-5-fluorocyclohexane-carboxamide] | 1980 | 1.1
N#CC1(NC(=O)[C@@H]2C[C@@H](F)CC[C@H]2c2nc(-c3ccc(C(F)(F)F)nn3)sc2-c2ccc(N3CCS(=O)(=O)CC3)cc2)CC1 [Example 197, (1R,2R,5S)-N-(1-cyanocyclopropyl)-2-(5-(4-(1,1-dioxidothiomorpho-lino)phenyl)-2-(6-(trifluoromethyl)pyridazin-3-yl)thiazol-4-yl)-5-fluorocyclohexane-carboxamide] | ≥ 10000 | 512
C[C@@H](C#N)NC(=O)[C@@H]1C[C@@H](F)CC[C@H]1c1nc(C2(C(F)(F)F)CC2)sc1-c1ccc(N2CCS(=O)(=O)CC2)cc1 [Example 231, (1R,2R,5S)-N-((S)-1-cyanoethyl)-2-(5-(4-(1,1-dioxidothiomorpho-lino)phenyl)-2-(1-(trifluoromethyl)cyclopropyl)thiazol-4-yl)-5-fluorocyclohexane-carboxamide] | 3140 | 2.8
N#CC1(NC(=O)[C@@H]2CCCC[C@H]2c2nc(-c3ccc(F)cc3)sc2-c2ccc(C(=O)N3CCOCC3)cc2)CC1 [Example 32, (1R,2R)-N-(1-cyanocyclopropyl)-2-(2-(4-fluorophenyl)-5-(4-(morpholine-4-carbonyl)phenyl)thi-azol-4-yl)cyclohexane-carboxamide] | 422 | 65.1
C[C@@H](C#N)NC(=O)[C@@H]1C[C@@H](F)CC[C@H]1c1nc(CF)sc1-c1ccc(N2CCS(=O)(=O)CC2)cc1 [Example 237, (1R,2R,5S)-N-((S)-1-cyanoethyl)-2-(5-(4-(1,1-dioxidothiomorpho-lino)phenyl)-2-(fluoromethyl)thia-zol-4-yl)-5-fluorocyclohexane-carboxamide] | 6830 | 4.1
N#CC1(NC(=O)[C@@H]2C[C@@H](F)CC[C@H]2c2nc(C3CC(F)C3)sc2-c2ccc(N3CCS(=O)(=O)CC3)cc2)CC1 (single isomer, unassigned) [Example 233, (1R,2R,5S)-N-(1-cyanocyclopropyl)-2-(5-(4-(1,1-dioxidothiomorpho-lino)phenyl)-2-((1S,3S or 1R,3R)-3-fluorocyclobutyl)thiazol-4-yl)-5-fluorocyclohexane-carboxamide] | ≥ 10000 | 6
CC(C#N)NC(=O)[C@@H]1C[C@@H](F)CC[C@H]1c1nc(-c2cncc(F)c2)sc1-c1ccc(N2CCS(=O)(=O)CC2)cc1 (single isomer, unassigned) [Example 127, (1R,2R,5S)-N-((R or S)-1-cyanoethyl)-2-(5-(4-(1,1-dioxidothiomorpho-lino)phenyl)-2-(5-fluoropyridin-3-yl)thiazol-4-yl)-5-fluorocyclohexane-carboxamide] | ≥ 10000 | 42.5
CC(=O)N1CC(c2ccc(-c3sc(-c4ccc(F)cc4)nc3[C@@H]3CCCC[C@H]3C(=O)NC3(C#N)CC3)cc2)C1 [Example 151, (1R,2R)-2-(5-(4-(1-acetylazetidin-3-yl)phenyl)-2-(4-fluorophenyl)thiazol-4-yl)-N-(1-cyanocyclopropyl) cyclohexanecarbox-amide] | 177 | 1.3

Reference: US9573913B2, “Cathepsin cysteine protease inhibitors” (Merck Sharp & Dohme Corp., priority 2013, dated 2017)
